Article PMC11549461, “Stability of immobilized L-arginine deiminase from Penicillium chrysogenum and evaluation of its anticancer activity” (Scientific Reports, 2024)

System: L-arginine deiminase (ADI)
Assay: Lineweaver-Burk plot; ammonia release with Nessler's reagent
Format: biochemical, Penicillium chrysogenum
Settings: free enzyme; pH and temperature of the kinetic assay not given

With `N=C(N)NCCC[C@H](N)C(=O)O` [L-arginine] the Km was 760 µM.
